Test systems include CCRF-CEM; EKVX; HCC 2998; HOP-62; HOP-92; K562; NCI-H23; NCI-H522; OVCAR-4; OVCAR-8; SF-268; SK-MEL-28; SK-OV-3; SN12C; SNB-75; SW-620; TK-10; UACC-257; RXF 393; SK-MEL-2.
Assay in all cases: NCI tumour cell line growth inhibition, 48 h

Eleven compounds from ChEMBL document CHEMBL1201862, “PubChem BioAssay data set” (2004) can be followed below.

Where “and” joins values, the source holds several entries; their conditions need not be identical. Equal entries are not always repeated.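 Five concentrations, 48 hours, 96-well plates. The concentration for 50% growth inhibition is given as GI50.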 Calls of active or inactive are those of the source. No stated cut-off is given here; in the data, active = GI50 up to about 1.1 µM and inactive = higher. Where only a bound is given, the exact number is not on record here.

For `CC(C)=CC(=O)N1CCN(C(=O)C=C(C)C)CC1`, the GI50 with CCRF-CEM, in the assay with EKVX, in the assay on HCC 2998, in the assay on HOP-62, with HOP-92 and in the assay with K562 was > 100 µM (inactive) throughout. Also, the GI50 in the assay with NCI-H23, in the assay with NCI-H522, in the assay on OVCAR-4, in the assay with OVCAR-8, with SF-268 and in the assay on SK-MEL-28 was > 100 µM (inactive) each time. The GI50 in the assay on SK-OV-3, with SN12C, in the assay on SNB-75, with SW-620, in the assay on TK-10 and in the assay on UACC-257 was > 100 µM (inactive) each time.
With `CC(=O)OC1COC(N2CCc3ccccc32)C(OC(C)=O)C1OC(C)=O` (centres undefined), the GI50 with CCRF-CEM was > 100 µM (inactive); with EKVX it was > 100 µM (inactive) and > 57.1 µM (inactive); with HCC 2998, > 100 µM (inactive); in the assay on HOP-62 it was > 100 µM (inactive); in the assay with K562 it was > 100 µM (inactive); in the assay on NCI-H23 it was > 100 µM (inactive). For the same compound, the GI50 with NCI-H522, in the assay on OVCAR-4, in the assay with OVCAR-8, in the assay with RXF 393, in the assay on SF-268 and in the assay with SK-MEL-28 was > 100 µM (inactive) in each case. For the same compound, the GI50 with SK-MEL-2, with SK-OV-3, with SN12C, with SW-620, with TK-10 and with UACC-257 was > 100 µM (inactive) throughout.
For the compound `C[n+]1c2ccccc2c(NCC(=O)O)c2ccccc21`, the GI50 in the assay on EKVX was 87.5 µM (inactive); in the assay with HCC 2998 it was > 100 µM (inactive); in the assay on HOP-62, > 100 µM (inactive); in the assay with K562, > 100 µM (inactive); in the assay with NCI-H23, > 100 µM (inactive); in the assay with NCI-H522, > 100 µM (inactive). The GI50 in the assay on OVCAR-4, in the assay on OVCAR-8, with RXF 393, in the assay on SF-268, with SK-MEL-2 and in the assay with SK-OV-3 was > 100 µM (inactive) each time. Besides, the GI50 in the assay with SN12C, in the assay with SNB-75, in the assay with SW-620, with TK-10 and with UACC-257 was > 100 µM (inactive) each time.
Consider `O=C1N=CN=C2C=CC(Cl)=C(I)C12` (centres undefined), for which the GI50 in the assay with CCRF-CEM is > 100 µM (inactive); with EKVX it was 9.4 µM (inactive); in the assay on HCC 2998, > 100 µM (inactive); in the assay with HOP-62, 67.5 µM (inactive); with K562 it was > 100 µM (inactive); with NCI-H23, 46.2 µM (inactive). In addition, the GI50 in the assay with OVCAR-4 is > 100 µM (inactive); in the assay on OVCAR-8, > 100 µM (inactive); in the assay with RXF 393, 23.3 µM (inactive); in the assay with SF-268 it was 20.2 µM (inactive); in the assay with SK-MEL-28, > 100 µM (inactive); in the assay with SK-MEL-2 it was 81.5 µM (inactive). Also, the GI50 in the assay with SK-OV-3 is 49.3 µM (inactive); in the assay with SN12C it was > 100 µM (inactive); in the assay on SW-620, > 100 µM (inactive); with TK-10 it was 80.9 µM (inactive); in the assay on UACC-257 it was > 100 µM (inactive).
Regarding `Cc1cc(C)n(-c2nc3ccccc3c(=O)n2-c2ccccc2)n1`, the GI50 in the assay on CCRF-CEM, in the assay with HCC 2998, in the assay with HOP-62, in the assay on K562, with NCI-H23 and in the assay with NCI-H522 was > 100 µM (inactive) in each case. The GI50 in the assay on OVCAR-4 was > 100 µM (inactive); with OVCAR-8, > 100 µM (inactive); in the assay with RXF 393, > 100 µM (inactive); with SF-268 it was > 100 µM (inactive); in the assay with SK-MEL-28, > 100 µM (inactive); in the assay with SK-MEL-2 it was 67 µM (inactive). For the same compound, the GI50 with SK-OV-3, with SN12C, with SNB-75, in the assay with SW-620, with TK-10 and with UACC-257 was > 100 µM (inactive) each time.
For `CCOP(C)(=O)C(Cc1c[nH]c2ccccc12)C(=O)O` (centres undefined), the GI50 with CCRF-CEM, with EKVX, with HCC 2998, in the assay on HOP-62, in the assay on HOP-92 and in the assay with K562 was > 100 µM (inactive) in each case. The GI50 in the assay on NCI-H522, in the assay on OVCAR-8, in the assay with SF-268, in the assay on SK-MEL-28, in the assay on SK-MEL-2 and in the assay on SK-OV-3 was > 100 µM (inactive) throughout. In addition, the GI50 in the assay with SN12C, in the assay with SNB-75 and in the assay on SW-620 was > 100 µM (inactive) in each case.
Regarding `O=C(c1ccccc1)c1c(CC(O)c2ccccc2)n(C(=O)c2ccccc2)c2ccccc12` (centres undefined), the GI50 with CCRF-CEM is 35.8 µM (inactive); in the assay with HCC 2998 it was 42.1 µM (inactive); in the assay on HOP-62, 24.2 µM (inactive); in the assay with HOP-92, 29.7 µM (inactive); in the assay on K562, 27.9 µM (inactive); in the assay with NCI-H23, 19 µM (inactive). In addition, the GI50 with NCI-H522 was 17.5 µM (inactive); with OVCAR-4 it was 35.5 µM (inactive); in the assay on OVCAR-8 it was 57.7 µM (inactive); in the assay on SF-268 it was 43.5 µM (inactive); with SK-MEL-28 it was 95.1 µM (inactive); in the assay on SK-MEL-2 it was 36.5 µM (inactive). In addition, the GI50 in the assay on SNB-75 was 6.97 µM (inactive); in the assay on SW-620, 50.7 µM (inactive); in the assay with TK-10, > 100 µM (inactive); with UACC-257 it was 35.3 µM (inactive).
In the case of `O=C(O)c1nc(-c2ccc(Cl)c(Cl)c2)nc2ccc(Cl)cc12`, the GI50 with CCRF-CEM is > 10 µM (inactive); in the assay with EKVX, > 100 µM (inactive); with HCC 2998, > 100 µM (inactive); with HOP-62, 38.2 µM (inactive); in the assay on K562, > 10 µM (inactive); in the assay on NCI-H23, 38.3 µM (inactive). Besides, the GI50 was 70.6 µM (inactive) with OVCAR-8; 28.3 µM (inactive) with RXF 393; 63 µM (inactive) with SF-268; > 100 µM (inactive) with SK-MEL-28; 78 µM (inactive) in the assay with SK-MEL-2; 17.8 µM (inactive) with SK-OV-3. Moreover, the GI50 is > 100 µM (inactive) in the assay on SN12C; 13.6 µM (inactive) in the assay on SNB-75; > 100 µM (inactive) in the assay with SW-620; 44.8 µM (inactive) in the assay on TK-10; > 100 µM (inactive) in the assay with UACC-257.
With `CN(C)c1ccc(/C=C2\Oc3ccccc3C2=O)cc1`, the GI50 in the assay on CCRF-CEM is > 100 µM (inactive); in the assay with EKVX, > 100 µM (inactive); with HCC 2998 it was > 100 µM (inactive); with HOP-62 it was > 100 µM (inactive); with K562, 21.5 µM (inactive); in the assay on NCI-H23, > 100 µM (inactive). For the same compound, the GI50 is 90.4 µM (inactive) in the assay with NCI-H522; > 100 µM (inactive) in the assay with OVCAR-4; > 100 µM (inactive) with OVCAR-8; > 100 µM (inactive) in the assay on RXF 393; > 100 µM (inactive) in the assay on SF-268; > 100 µM (inactive) in the assay with SK-MEL-28. The GI50 in the assay with SK-OV-3, in the assay with SN12C, in the assay on SNB-75, with SW-620, in the assay on TK-10 and with UACC-257 was > 100 µM (inactive) throughout.
Consider `CSS(C)(=O)=O`, for which the GI50 is < 0.01 µM (active) in the assay on CCRF-CEM; 27.9 µM (inactive) in the assay on EKVX; 27.8 µM (inactive) in the assay on HCC 2998; 44.2 µM (inactive) in the assay with HOP-62; 31.3 µM (inactive) in the assay with K562; 19.9 µM (inactive) with NCI-H23. Besides, the GI50 in the assay with NCI-H522 was 18.2 µM (inactive); with OVCAR-4, 27.4 µM (inactive); in the assay on OVCAR-8, 27.4 µM (inactive); with RXF 393, 26.5 µM (inactive); with SF-268, 31.5 µM (inactive); with SK-MEL-28 it was 21.6 µM (inactive). Besides, the GI50 with SK-MEL-2 is 27.3 µM (inactive); in the assay with SN12C, 21.5 µM (inactive); in the assay on SNB-75, 32.3 µM (inactive); with SW-620, 46.7 µM (inactive); with TK-10 it was 24.7 µM (inactive); in the assay with UACC-257, 23.9 µM (inactive).
On to `CC(CN1CCN(CC(C)Nc2ccnc3cc(Cl)ccc23)CC1)Nc1ccnc2cc(Cl)ccc12` (centres undefined), for which the GI50 in the assay with CCRF-CEM was 3.69 µM (inactive); in the assay with EKVX it was 19 µM (inactive); in the assay on HCC 2998 it was 16.6 µM (inactive); in the assay with HOP-62, 22.5 µM (inactive); with K562, 2.84 µM (inactive); in the assay with NCI-H23, 18.6 µM (inactive). Besides, the GI50 in the assay with NCI-H522 was 20.7 µM (inactive); in the assay on OVCAR-4 it was 20.2 µM (inactive); in the assay with OVCAR-8, 18.9 µM (inactive); in the assay with RXF 393 it was 13.2 µM (inactive); in the assay on SF-268 it was 2.81 µM (inactive); with SK-MEL-28, 1.6 µM (inactive). The GI50 with SK-OV-3 was 34 µM (inactive); in the assay on SN12C, 22.4 µM (inactive); in the assay on SNB-75, 16.9 µM (inactive); in the assay on TK-10, 23.9 µM (inactive); in the assay on UACC-257, 19.4 µM (inactive).
